Reference: publication PMC6825221, “In silico re-engineering of a neurotransmitter to activate KCNQ potassium channels in an isoform-specific manner” (Communications Biology, 2019)
Values joined by “and” are separate entries in the source; they are usually repeats but may differ in a detail not shown here. Identical values can stand only once.

Tests used:
GLRA1 = target: T1, GLRA1 (Homo sapiens, UniProt P23415); assay: TEVC of glycine receptor GLRA1 expressed in Xenopus oocytes; format: cell-based
T1 sequence (P23415 29-457): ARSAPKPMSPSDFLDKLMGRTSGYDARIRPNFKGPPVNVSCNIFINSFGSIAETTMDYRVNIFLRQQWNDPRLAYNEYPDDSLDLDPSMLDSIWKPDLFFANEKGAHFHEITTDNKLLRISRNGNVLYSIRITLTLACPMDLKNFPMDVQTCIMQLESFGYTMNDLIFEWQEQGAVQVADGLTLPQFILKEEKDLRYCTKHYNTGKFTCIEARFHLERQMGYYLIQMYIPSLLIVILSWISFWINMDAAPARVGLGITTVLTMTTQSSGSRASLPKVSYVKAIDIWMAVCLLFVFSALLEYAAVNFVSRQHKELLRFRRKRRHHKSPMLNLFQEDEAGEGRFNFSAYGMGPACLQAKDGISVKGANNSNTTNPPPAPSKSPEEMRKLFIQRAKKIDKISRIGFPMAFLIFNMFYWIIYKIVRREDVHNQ
Excerpt: We generated cRNA transcripts encoding human KCNQ1, KCNQ2, KCNQ3, KCNQ4, KCNQ5 or GLRA1 (NM_001146040) (GenScript, Piscataway, NJ, USA) by in vitro transcription using the T7 polymerase mMessage mMachine kit (Thermo Fisher Scientific), after vector linearization, from cDNA sub-cloned into plasmids incorporating Xenopus laevis β-globin 5′ and 3′ UTRs flanking the coding region to enhance translation and cRNA stability. We quantified cRNA by spectrophotometry. We generated mutant KCNQ2 and KCNQ3 cDNAs by site-directed mutagenesis using a QuikChange kit (Stratagene, San Diego, CA) and prepared the corresponding cRNAs as above. We injected defolliculated stage V and VI Xenopus laevis oocytes (Ecocyte Bioscience, Austin, TX and Xenoocyte, Dexter, MI) with KCNQ channel α subunit (5-20 ng) or GLRA1 (20 ng) cRNAs. We incubated the oocytes at 16 °C in Barth’s saline solution (Ecocyte Bioscience) containing penicillin and streptomycin, with daily washing, for 2–5 days prior to two-electrode voltage-clamp (TEVC) recording.
We performed TEVC at room temperature using an OC-725C amplifier (Warner Instruments, Hamden, CT) and pClamp10 software (Molecular Devices, Sunnyvale, CA) 2–5 days after cRNA injection as described in the section above. For recording, oocytes were placed in a small-volume oocyte bath (Warner) and viewed them with a dissection microscope. Chemicals were sourced from Sigma, Matrix Scientific and Santa Cruz. […] All stock solutions were diluted in bath solution on the day of experiments. KCNQ2/3 channel activation was screened for using either 30 µM or 100 µM concentrations of each of the six compounds, then dose responses were conducted as appropriate. Bath solution was (in mM): 96 NaCl, 4 KCl, 1 MgCl2, 1 CaCl2, 10 HEPES (pH 7.6). Compounds were introduced into the oocyte recording bath by gravity perfusion at a constant flow of 1 ml per minute for 3 min prior to recording. Pipettes were of 1–2 MΩ resistance when filled with 3 M KCl. Currents were recorded in response to voltage pulses between −120 or −80 mV and + 40 mV at 20 mV intervals from a holding potential of −80 mV, to yield current-voltage relationships, current magnitude, and for quantifying activation rate. We analyzed data using Clampfit (Molecular Devices) and Graphpad Prism software (GraphPad, San Diego, CA, USA); values are stated as mean ± SEM. We plotted raw or normalized tail currents versus prepulse voltage and fitted with a single Boltzmann function:1 g=(A1−A2)/1+exp(V12−V)∕VS+A2, where g is the normalized tail conductance, A1 is the initial value at −∞, A2 is the final value at +∞, V1/2 is the half-maximal voltage of activation and Vs the slope factor. Activation, deactivation, wash-in and washout kinetics were fitted with single exponential functions to yield a τ value.

KCNQ3*-R242A = target: T2, KCNQ3*-R242A (Homo sapiens, UniProt O43525, A315T/R242A); assay: TEVC of homomeric KCNQ3*-R242A; format: cell-based; conditions: 100 µM
T2 sequence (O43525 1-872 R242A/A315T): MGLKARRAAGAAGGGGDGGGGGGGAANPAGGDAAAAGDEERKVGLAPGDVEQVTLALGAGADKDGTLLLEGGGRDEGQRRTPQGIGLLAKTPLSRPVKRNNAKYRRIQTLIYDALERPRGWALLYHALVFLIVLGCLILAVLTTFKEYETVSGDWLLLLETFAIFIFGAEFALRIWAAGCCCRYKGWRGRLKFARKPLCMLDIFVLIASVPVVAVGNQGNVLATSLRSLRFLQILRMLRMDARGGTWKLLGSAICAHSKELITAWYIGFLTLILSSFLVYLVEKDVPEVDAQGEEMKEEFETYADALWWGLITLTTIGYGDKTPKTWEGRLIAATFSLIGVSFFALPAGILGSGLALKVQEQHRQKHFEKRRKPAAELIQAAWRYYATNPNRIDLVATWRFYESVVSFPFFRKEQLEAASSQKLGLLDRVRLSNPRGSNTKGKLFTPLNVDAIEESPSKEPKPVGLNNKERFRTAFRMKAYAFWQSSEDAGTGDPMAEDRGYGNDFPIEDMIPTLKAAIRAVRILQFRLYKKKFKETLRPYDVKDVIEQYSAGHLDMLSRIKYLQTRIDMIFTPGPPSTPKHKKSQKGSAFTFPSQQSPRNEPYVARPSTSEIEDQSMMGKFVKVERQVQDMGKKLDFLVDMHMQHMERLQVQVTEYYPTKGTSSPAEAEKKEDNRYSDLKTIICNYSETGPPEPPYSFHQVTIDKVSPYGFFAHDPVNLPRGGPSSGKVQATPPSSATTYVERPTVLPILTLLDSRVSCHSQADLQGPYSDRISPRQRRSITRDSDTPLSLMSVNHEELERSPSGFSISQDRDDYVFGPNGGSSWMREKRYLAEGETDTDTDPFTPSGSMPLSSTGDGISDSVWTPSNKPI
Excerpt: We generated cRNA transcripts encoding human KCNQ1, KCNQ2, KCNQ3, KCNQ4, KCNQ5 or GLRA1 (NM_001146040) (GenScript, Piscataway, NJ, USA) by in vitro transcription using the T7 polymerase mMessage mMachine kit (Thermo Fisher Scientific), after vector linearization, from cDNA sub-cloned into plasmids incorporating Xenopus laevis β-globin 5′ and 3′ UTRs flanking the coding region to enhance translation and cRNA stability. We quantified cRNA by spectrophotometry. We generated mutant KCNQ2 and KCNQ3 cDNAs by site-directed mutagenesis using a QuikChange kit (Stratagene, San Diego, CA) and prepared the corresponding cRNAs as above. […]
We performed TEVC at room temperature using an OC-725C amplifier (Warner Instruments, Hamden, CT) and pClamp10 software (Molecular Devices, Sunnyvale, CA) 2–5 days after cRNA injection as described in the section above. […] Currents were recorded in response to voltage pulses between −120 or −80 mV and + 40 mV at 20 mV intervals from a holding potential of −80 mV, to yield current-voltage relationships, current magnitude, and for quantifying activation rate. We analyzed data using Clampfit (Molecular Devices) and Graphpad Prism software (GraphPad, San Diego, CA, USA); values are stated as mean ± SEM. […]

CS(=O)(=O)N(CC(=O)O)c1cccc(F)c1 [3FMSG]
inhibition of glycine-activated GLRA1 (GLRA1; 100 µM, 1 mM glycine): 35-40% and ~ 40% | activation of GLRA1 (GLRA1; 1 mM, compound alone): Neither compound activated GLRA1 | inhibition of the activation of GLRA1 by 1 mM glycine (GLRA1; each at 100 µM): partially inhibited | effect on nonfunctional KCNQ3*-R242A (KCNQ3*-R242A): awakened neither by 3FMSG nor retigabine
